# From ChEMBL document CHEMBL4616718, “Discovery of Potent Small-Molecule Inhibitors of MLL Methyltransferase” (ACS Med Chem Lett, 2020)
# Target: MLL1-ASH2L/RbBP5/WDR5/DPY30
# Assay: Inhibition of recombinant human MLL1 complex (MLL1/Ash2L/RbBP5/WDR5/DPY-30) expressed in Escherichia coli Rosetta 2 (DE3) cells using H3 (1 to 21) peptide as substrate incubated for 1 hr in presence of 3[H] SAM by […] assay
row,Compound,IC50 [µM]
1,Nc1ncnc2c1ncn2[C@@H]1O[C@H](CN(CC[C@H](N)C(=O)O)CC2CN(Cc3ccc(Cl)cc3)C2)[C@@H](O)[C@H]1O,0.0556
2,Nc1ncnc2c1ncn2[C@@H]1O[C@H](CSCC[C@H](N)C(=O)O)[C@@H](O)[C@H]1O [S-ADENOSYLHOMOCYSTEINE],0.724
3,Nc1ncnc2c1ncn2[C@@H]1O[C@H](CN(CC[C@H](N)C(=O)O)CC2CN(Cc3ccccc3Cl)C2)[C@@H](O)[C@H]1O,0.15
4,Nc1ncnc2c1ncn2[C@@H]1O[C@H](CN(CC[C@H](N)C(=O)O)CC2CN(Cc3coc4ccccc34)C2)[C@@H](O)[C@H]1O,0.119
5,Nc1ncnc2c1ncn2[C@@H]1O[C@H](CN(CCCNCCCc2ccccc2)CC[C@H](N)C(=O)O)[C@@H](O)[C@H]1O,0.201
6,Nc1ncnc2c1ncn2[C@@H]1O[C@H](CN(CC[C@H](N)C(=O)O)CC2CN(CCC(c3ccccc3)c3ccccc3)C2)[C@@H](O)[C@H]1O,0.138
7,CCCCN1CC(CN(CC[C@H](N)C(=O)O)C[C@H]2O[C@@H](n3cnc4c(N)ncnc43)[C@H](O)[C@@H]2O)C1,0.0724
8,Nc1ncnc2c1ncn2[C@@H]1O[C@H](CN(CC[C@H](N)C(=O)O)C2CC(NCCCC3CCCC3)C2)[C@@H](O)[C@H]1O (some centres undefined),0.127
9,Nc1ncnc2c1ncn2[C@@H]1O[C@H](CN(CC[C@H](N)C(=O)O)Cc2cn(CCc3ccccc3)nn2)[C@@H](O)[C@H]1O,0.132
10,Nc1ncnc2c1ncn2[C@@H]1O[C@H](CN(CC[C@H](N)C(=O)O)CC2CN(Cc3ccccc3)C2)[C@@H](O)[C@H]1O,0.0468
11,Nc1ncnc2c1ncn2[C@@H]1O[C@H](CN(CC[C@H](N)C(=O)O)CC2CN(Cc3cccs3)C2)[C@@H](O)[C@H]1O,0.0665
12,Nc1ncnc2c1ncn2[C@@H]1O[C@H](CN(CC[C@H](N)C(=O)O)CC2CN(Cc3cccc(Cl)c3)C2)[C@@H](O)[C@H]1O,0.0995
13,NCCN(CC[C@H](N)C(=O)O)C[C@H]1O[C@@H](n2cnc3c(N)ncnc32)[C@H](O)[C@@H]1O,0.592
14,Nc1ncnc2c1ncn2[C@@H]1O[C@H](CN(CC[C@H](N)C(=O)O)CC2CN(CCCC3CCCC3)C2)[C@@H](O)[C@H]1O,0.0255
15,Nc1ncnc2c1ncn2[C@@H]1O[C@H](CN(CC[C@H](N)C(=O)O)CC2CN(Cc3ccsc3)C2)[C@@H](O)[C@H]1O,0.0152
16,Nc1ncnc2c1ncn2[C@@H]1O[C@H](CN(CC[C@H](N)C(=O)O)CC2CN(Cc3ccoc3)C2)[C@@H](O)[C@H]1O,0.0218
17,Nc1ncnc2c1ncn2[C@@H]1O[C@H](CN(CC[C@H](N)C(=O)O)CC2CN(CCCc3ccccc3)C2)[C@@H](O)[C@H]1O,0.0296
18,Nc1ncnc2c1ncn2[C@@H]1O[C@H](CN(CC[C@H](N)C(=O)O)C2CN(CCCC3CCCC3)C2)[C@@H](O)[C@H]1O,0.234
19,Nc1ncnc2c1ncn2[C@@H]1O[C@H](CN(CC[C@H](N)C(=O)O)C2CC(CNCCCc3ccccc3)C2)[C@@H](O)[C@H]1O (some centres undefined),0.451
